Laboratory results as given in PubChem BioAssay (NCI).
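Step 1: Grow cells in 96-well plates. Step 2: Expose to compound for 48 hours at 5 concentrations. Step 3: Interpolate endpoints linearly; if unreached, use highest concentration. TGI is the concentration that stops growth completely.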

Columns and labels:
Assay in all cases: DTP human tumour cell line panel, 48 h
786-0 renal = system: 786-0 renal
A498 renal = system: A498 renal
A549 NSCLC = system: A549 NSCLC
ACHN renal = system: ACHN renal
BT-549 breast = system: BT-549 breast
CAKI-1 renal = system: CAKI-1 renal
CCRF-CEM leukemia = system: CCRF-CEM leukemia
COLO 205 colon = system: COLO 205 colon
DU-145 prostate = system: DU-145 prostate
EKVX NSCLC = system: EKVX NSCLC
HCC-2998 colon = system: HCC-2998 colon
HCT-116 colon = system: HCT-116 colon
HCT-15 colon = system: HCT-15 colon
HL-60(TB) leukemia = system: HL-60(TB) leukemia
HOP-62 NSCLC = system: HOP-62 NSCLC
HOP-92 NSCLC = system: HOP-92 NSCLC
HS 578T breast = system: HS 578T breast
HT29 colon = system: HT29 colon
IGROV1 ovarian = system: IGROV1 ovarian
K-562 leukemia = system: K-562 leukemia
KM12 colon = system: KM12 colon
LOX IMVI melanoma = system: LOX IMVI melanoma
M14 melanoma = system: M14 melanoma
MALME-3M melanoma = system: MALME-3M melanoma
MCF7 breast = system: MCF7 breast
MDA-MB-231 breast = system: MDA-MB-231 breast
MDA-MB-435 = system: MDA-MB-435
MDA-N = system: MDA-N
MOLT-4 leukemia = system: MOLT-4 leukemia
NCI-H226 lung = system: NCI-H226 lung
NCI-H23 lung = system: NCI-H23 lung
NCI-H522 lung = system: NCI-H522 lung
NCI/ADR-RES ovarian = system: NCI/ADR-RES ovarian
OVCAR-3 ovarian = system: OVCAR-3 ovarian
OVCAR-4 ovarian = system: OVCAR-4 ovarian
OVCAR-5 ovarian = system: OVCAR-5 ovarian
OVCAR-8 ovarian = system: OVCAR-8 ovarian
PC-3 prostate = system: PC-3 prostate
RPMI-8226 leukemia = system: RPMI-8226 leukemia
RXF 393 renal = system: RXF 393 renal
SF-268 CNS = system: SF-268 CNS
SF-295 CNS = system: SF-295 CNS
SK-MEL-2 melanoma = system: SK-MEL-2 melanoma
SK-MEL-28 melanoma = system: SK-MEL-28 melanoma
SK-MEL-5 melanoma = system: SK-MEL-5 melanoma
SK-OV-3 ovarian = system: SK-OV-3 ovarian
SN12C renal = system: SN12C renal
SNB-75 CNS = system: SNB-75 CNS
SR leukemia = system: SR leukemia
SW-620 colon = system: SW-620 colon
T-47D breast = system: T-47D breast
TK-10 renal = system: TK-10 renal
U251 CNS = system: U251 CNS
UACC-257 melanoma = system: UACC-257 melanoma
UACC-62 melanoma = system: UACC-62 melanoma
UO-31 renal = system: UO-31 renal
NCI-H460 lung = system: NCI-H460 lung
SF-539 CNS = system: SF-539 CNS
SNB-19 CNS = system: SNB-19 CNS

Measured: TGI

O=C1C2CC=CCC2C(=O)N1n1c(Cc2ccc(Cl)cc2)n[nH]c1=O (stereo not drawn)
> 100 µM: 786-0 renal | A498 renal | A549 NSCLC | ACHN renal | BT-549 breast | CAKI-1 renal | CCRF-CEM leukemia | COLO 205 colon | DU-145 prostate | EKVX NSCLC | HCC-2998 colon | HCT-116 colon | HCT-15 colon | HL-60(TB) leukemia | HOP-62 NSCLC | HOP-92 NSCLC | HS 578T breast | HT29 colon | IGROV1 ovarian | K-562 leukemia | KM12 colon | LOX IMVI melanoma | M14 melanoma | MALME-3M melanoma | MCF7 breast | MDA-MB-231 breast | MDA-MB-435 | MDA-N | MOLT-4 leukemia | NCI-H226 lung | NCI-H23 lung | NCI-H522 lung | NCI/ADR-RES ovarian | OVCAR-3 ovarian | OVCAR-4 ovarian | OVCAR-5 ovarian | OVCAR-8 ovarian | PC-3 prostate | RPMI-8226 leukemia | RXF 393 renal | SF-268 CNS | SF-295 CNS | SK-MEL-2 melanoma | SK-MEL-28 melanoma | SK-MEL-5 melanoma | SK-OV-3 ovarian | SN12C renal | SNB-75 CNS | SR leukemia | SW-620 colon | T-47D breast | TK-10 renal | U251 CNS | UACC-257 melanoma | UACC-62 melanoma | UO-31 renal

CS(=O)(=O)Nc1ccc2c(c1)oc(=O)c1ccccc12
> 100 µM: 786-0 renal | A498 renal | A549 NSCLC | ACHN renal | BT-549 breast | CAKI-1 renal | CCRF-CEM leukemia | COLO 205 colon | DU-145 prostate | EKVX NSCLC | HCC-2998 colon | HCT-116 colon | HCT-15 colon | HL-60(TB) leukemia | HOP-62 NSCLC | HOP-92 NSCLC | HS 578T breast | HT29 colon | IGROV1 ovarian | K-562 leukemia | KM12 colon | LOX IMVI melanoma | M14 melanoma | MALME-3M melanoma | MCF7 breast | MDA-MB-231 breast | MDA-MB-435 | MDA-N | MOLT-4 leukemia | NCI-H226 lung | NCI-H23 lung | NCI-H460 lung | NCI-H522 lung | NCI/ADR-RES ovarian | OVCAR-3 ovarian | OVCAR-4 ovarian | OVCAR-5 ovarian | OVCAR-8 ovarian | PC-3 prostate | RPMI-8226 leukemia | RXF 393 renal | SF-268 CNS | SF-295 CNS | SF-539 CNS | SK-MEL-2 melanoma | SK-MEL-28 melanoma | SK-MEL-5 melanoma | SN12C renal | SNB-19 CNS | SNB-75 CNS | SR leukemia | SW-620 colon | T-47D breast | U251 CNS | UACC-257 melanoma | UACC-62 melanoma | UO-31 renal
